According to paper PMC12090182, “Repurposing of the RIPK1-Selective Benzo[1,4]oxazepin-4-one Scaffold for the Development of a Type III LIMK1/2 Inhibitor” (ACS Chemical Biology, 2025):

Experiments:
Assay in all cases: biochemical
Assay type in all cases: binding
[1] = target: 468 kinases including some pathogenic mutants (Homo sapiens, UniProt O00141); settings: SGK (Entrez SGK1), 1000 nM; read-out: Percent Control
[2] = target: 468 kinases including some pathogenic mutants (Homo sapiens, UniProt O00506); settings: YSK1 (Entrez STK25), 1000 nM; read-out: Percent Control
[3] = target: 468 kinases including some pathogenic mutants (Homo sapiens, UniProt O00750); settings: PIK3C2B (Entrez PIK3C2B), 1000 nM; read-out: Percent Control
[4] = target: 468 kinases including some pathogenic mutants (Homo sapiens, UniProt O95835); settings: LATS1 (Entrez LATS1), 100 nM; read-out: Percent Control
[5] = target: 468 kinases including some pathogenic mutants (Homo sapiens, UniProt P07947); settings: YES (Entrez YES1), 100 nM; read-out: Percent Control
[6] = target: 468 kinases including some pathogenic mutants (Homo sapiens, UniProt P21860); settings: ERBB3 (Entrez ERBB3), 100 nM; read-out: Percent Control
[7] = target: 468 kinases including some pathogenic mutants (Homo sapiens, UniProt P29597); settings: read-out: Percent Control
[8] = target: 468 kinases including some pathogenic mutants (Homo sapiens, UniProt P30291); settings: WEE1 (Entrez WEE1), 100 nM; read-out: Percent Control
[9] = target: 468 kinases including some pathogenic mutants (Homo sapiens, UniProt P31152); settings: ERK4 (Entrez MAPK4), 100 nM; read-out: Percent Control
[10] = target: 468 kinases including some pathogenic mutants (Homo sapiens, UniProt P42336, C420R); settings: read-out: Percent Control
[11] = target: 468 kinases including some pathogenic mutants (Homo sapiens, UniProt P42336, E542K); settings: read-out: Percent Control
[12] = target: 468 kinases including some pathogenic mutants (Homo sapiens, UniProt P42336, H1047Y); settings: read-out: Percent Control
[13] = target: 468 kinases including some pathogenic mutants (Homo sapiens, UniProt P42338); settings: PIK3CB (Entrez PIK3CB), 100 nM; read-out: Percent Control
[14] = target: 468 kinases including some pathogenic mutants (Homo sapiens, UniProt P42345); settings: MTOR (Entrez MTOR), 1000 nM; read-out: Percent Control
[15] = target: 468 kinases including some pathogenic mutants (Homo sapiens, UniProt P42681); settings: TXK (Entrez TXK), 100 nM; read-out: Percent Control
[16] = target: 468 kinases including some pathogenic mutants (Homo sapiens, UniProt P48736); settings: PIK3CG (Entrez PIK3CG), 100 nM; read-out: Percent Control
[17] = target: 468 kinases including some pathogenic mutants (Homo sapiens, UniProt P51817); settings: PRKX (Entrez PRKX), 100 nM; read-out: Percent Control
[18] = target: 468 kinases including some pathogenic mutants (Homo sapiens, UniProt P52564); settings: MEK6 (Entrez MAP2K6), 1000 nM; read-out: Percent Control
[19] = target: 468 kinases including some pathogenic mutants (Homo sapiens, UniProt P78362); settings: SRPK2 (Entrez SRPK2), 1000 nM; read-out: Percent Control
[20] = target: 468 kinases including some pathogenic mutants (Homo sapiens, UniProt Q00526); settings: CDK3 (Entrez CDK3), 100 nM; read-out: Percent Control
[21] = target: 468 kinases including some pathogenic mutants (Homo sapiens, UniProt Q07002); settings: read-out: Percent Control
[22] = target: 468 kinases including some pathogenic mutants (Homo sapiens, UniProt Q14164); settings: IKK-epsilon (Entrez IKBKE), 100 nM; read-out: Percent Control
[23] = target: 468 kinases including some pathogenic mutants (Homo sapiens, UniProt Q2M2I8); settings: AAK1 (Entrez AAK1), 100 nM; read-out: Percent Control
[24] = target: 468 kinases including some pathogenic mutants (Homo sapiens, UniProt Q96PY6); settings: NEK1 (Entrez NEK1), 1000 nM; read-out: Percent Control
[25] = target: 468 kinases including some pathogenic mutants (Homo sapiens, UniProt Q9BZL6); settings: PRKD2 (Entrez PRKD2), 100 nM; read-out: Percent Control
[26] = target: 468 kinases including some pathogenic mutants (Homo sapiens, UniProt Q9NSY1); settings: BIKE (Entrez BMP2K), 100 nM; read-out: Percent Control
[27] = target: 468 kinases including some pathogenic mutants (Homo sapiens, UniProt Q9NWZ3); settings: IRAK4 (Entrez IRAK4), 1000 nM; read-out: Percent Control
[28] = target: 468 kinases including some pathogenic mutants (Homo sapiens, UniProt Q9UL54); settings: TAOK2 (Entrez TAOK2), 100 nM; read-out: Percent Control
[29] = target: 468 kinases including some pathogenic mutants (Homo sapiens, UniProt Q9UPZ9); settings: ICK (Entrez ICK), 100 nM; read-out: Percent Control

468 kinases including some pathogenic mutants (Homo sapiens, UniProt P29597), sequence (P29597 whole entry, change not shown): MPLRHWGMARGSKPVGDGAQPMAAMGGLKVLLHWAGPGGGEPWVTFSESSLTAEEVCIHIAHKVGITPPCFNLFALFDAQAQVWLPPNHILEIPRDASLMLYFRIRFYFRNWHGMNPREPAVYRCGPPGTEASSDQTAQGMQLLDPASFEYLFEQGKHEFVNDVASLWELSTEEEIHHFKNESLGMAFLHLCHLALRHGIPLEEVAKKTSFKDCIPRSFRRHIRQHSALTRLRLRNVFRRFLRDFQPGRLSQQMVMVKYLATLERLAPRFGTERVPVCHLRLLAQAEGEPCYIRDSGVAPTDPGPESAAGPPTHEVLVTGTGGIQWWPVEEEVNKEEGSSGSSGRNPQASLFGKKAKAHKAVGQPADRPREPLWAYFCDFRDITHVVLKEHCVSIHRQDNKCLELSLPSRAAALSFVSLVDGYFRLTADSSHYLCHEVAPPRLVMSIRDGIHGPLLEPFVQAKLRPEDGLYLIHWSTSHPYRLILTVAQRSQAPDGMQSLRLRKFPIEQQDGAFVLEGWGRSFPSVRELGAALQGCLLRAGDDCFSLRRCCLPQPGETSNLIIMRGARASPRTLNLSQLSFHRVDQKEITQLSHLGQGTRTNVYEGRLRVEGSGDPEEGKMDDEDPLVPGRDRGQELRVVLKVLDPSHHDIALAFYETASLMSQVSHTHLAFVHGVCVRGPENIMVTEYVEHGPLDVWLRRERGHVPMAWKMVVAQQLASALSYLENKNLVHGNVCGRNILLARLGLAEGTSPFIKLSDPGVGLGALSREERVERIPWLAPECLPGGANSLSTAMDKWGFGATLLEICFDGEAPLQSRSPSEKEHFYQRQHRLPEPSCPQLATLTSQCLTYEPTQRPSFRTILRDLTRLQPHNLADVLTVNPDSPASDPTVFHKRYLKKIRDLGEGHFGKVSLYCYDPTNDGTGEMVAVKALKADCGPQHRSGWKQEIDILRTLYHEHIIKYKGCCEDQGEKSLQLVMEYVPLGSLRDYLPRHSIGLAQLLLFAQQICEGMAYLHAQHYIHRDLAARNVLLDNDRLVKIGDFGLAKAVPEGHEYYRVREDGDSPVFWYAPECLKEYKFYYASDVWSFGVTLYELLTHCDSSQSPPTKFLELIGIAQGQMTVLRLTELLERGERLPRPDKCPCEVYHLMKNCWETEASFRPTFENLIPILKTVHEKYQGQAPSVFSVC
468 kinases including some pathogenic mutants (Homo sapiens, UniProt P52564), sequence (P52564 whole entry, change not shown): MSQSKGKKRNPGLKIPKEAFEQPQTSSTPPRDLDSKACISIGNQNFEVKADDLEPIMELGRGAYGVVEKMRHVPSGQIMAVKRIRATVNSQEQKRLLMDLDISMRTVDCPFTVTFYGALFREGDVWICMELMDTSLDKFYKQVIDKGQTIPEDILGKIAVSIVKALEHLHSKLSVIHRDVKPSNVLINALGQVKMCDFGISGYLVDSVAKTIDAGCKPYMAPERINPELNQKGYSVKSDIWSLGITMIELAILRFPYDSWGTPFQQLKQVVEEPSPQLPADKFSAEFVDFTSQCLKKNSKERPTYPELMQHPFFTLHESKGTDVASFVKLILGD
468 kinases including some pathogenic mutants (Homo sapiens, UniProt P42336, E542K), sequence (P42336 whole entry E542K): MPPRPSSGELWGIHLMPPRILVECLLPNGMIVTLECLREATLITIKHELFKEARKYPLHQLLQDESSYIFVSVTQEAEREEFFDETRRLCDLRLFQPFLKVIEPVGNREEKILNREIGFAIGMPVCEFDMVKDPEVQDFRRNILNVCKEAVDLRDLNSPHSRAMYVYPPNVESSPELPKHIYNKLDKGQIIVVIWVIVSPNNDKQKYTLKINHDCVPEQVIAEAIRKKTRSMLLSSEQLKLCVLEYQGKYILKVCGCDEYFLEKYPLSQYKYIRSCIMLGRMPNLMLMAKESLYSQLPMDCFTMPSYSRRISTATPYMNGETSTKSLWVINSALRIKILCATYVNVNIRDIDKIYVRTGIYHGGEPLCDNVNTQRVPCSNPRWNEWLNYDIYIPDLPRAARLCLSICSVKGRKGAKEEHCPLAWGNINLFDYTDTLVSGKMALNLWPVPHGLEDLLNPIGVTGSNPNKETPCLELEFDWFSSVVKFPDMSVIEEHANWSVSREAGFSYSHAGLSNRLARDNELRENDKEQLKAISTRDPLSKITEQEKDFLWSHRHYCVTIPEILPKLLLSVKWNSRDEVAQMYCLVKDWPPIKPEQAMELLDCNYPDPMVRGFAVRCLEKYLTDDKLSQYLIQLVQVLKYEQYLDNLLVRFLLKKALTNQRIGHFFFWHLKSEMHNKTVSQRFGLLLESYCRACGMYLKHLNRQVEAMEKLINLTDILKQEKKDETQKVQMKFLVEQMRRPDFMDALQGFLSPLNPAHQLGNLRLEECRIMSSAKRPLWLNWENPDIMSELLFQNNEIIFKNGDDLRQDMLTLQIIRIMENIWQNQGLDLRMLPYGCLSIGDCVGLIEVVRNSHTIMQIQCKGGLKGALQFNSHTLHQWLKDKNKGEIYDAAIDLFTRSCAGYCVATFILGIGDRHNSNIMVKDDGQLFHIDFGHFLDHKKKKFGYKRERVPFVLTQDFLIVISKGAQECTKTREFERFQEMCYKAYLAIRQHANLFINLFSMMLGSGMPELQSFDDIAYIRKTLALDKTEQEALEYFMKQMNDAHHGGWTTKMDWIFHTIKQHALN
468 kinases including some pathogenic mutants (Homo sapiens, UniProt P21860), sequence (P21860 20-1342, change not shown): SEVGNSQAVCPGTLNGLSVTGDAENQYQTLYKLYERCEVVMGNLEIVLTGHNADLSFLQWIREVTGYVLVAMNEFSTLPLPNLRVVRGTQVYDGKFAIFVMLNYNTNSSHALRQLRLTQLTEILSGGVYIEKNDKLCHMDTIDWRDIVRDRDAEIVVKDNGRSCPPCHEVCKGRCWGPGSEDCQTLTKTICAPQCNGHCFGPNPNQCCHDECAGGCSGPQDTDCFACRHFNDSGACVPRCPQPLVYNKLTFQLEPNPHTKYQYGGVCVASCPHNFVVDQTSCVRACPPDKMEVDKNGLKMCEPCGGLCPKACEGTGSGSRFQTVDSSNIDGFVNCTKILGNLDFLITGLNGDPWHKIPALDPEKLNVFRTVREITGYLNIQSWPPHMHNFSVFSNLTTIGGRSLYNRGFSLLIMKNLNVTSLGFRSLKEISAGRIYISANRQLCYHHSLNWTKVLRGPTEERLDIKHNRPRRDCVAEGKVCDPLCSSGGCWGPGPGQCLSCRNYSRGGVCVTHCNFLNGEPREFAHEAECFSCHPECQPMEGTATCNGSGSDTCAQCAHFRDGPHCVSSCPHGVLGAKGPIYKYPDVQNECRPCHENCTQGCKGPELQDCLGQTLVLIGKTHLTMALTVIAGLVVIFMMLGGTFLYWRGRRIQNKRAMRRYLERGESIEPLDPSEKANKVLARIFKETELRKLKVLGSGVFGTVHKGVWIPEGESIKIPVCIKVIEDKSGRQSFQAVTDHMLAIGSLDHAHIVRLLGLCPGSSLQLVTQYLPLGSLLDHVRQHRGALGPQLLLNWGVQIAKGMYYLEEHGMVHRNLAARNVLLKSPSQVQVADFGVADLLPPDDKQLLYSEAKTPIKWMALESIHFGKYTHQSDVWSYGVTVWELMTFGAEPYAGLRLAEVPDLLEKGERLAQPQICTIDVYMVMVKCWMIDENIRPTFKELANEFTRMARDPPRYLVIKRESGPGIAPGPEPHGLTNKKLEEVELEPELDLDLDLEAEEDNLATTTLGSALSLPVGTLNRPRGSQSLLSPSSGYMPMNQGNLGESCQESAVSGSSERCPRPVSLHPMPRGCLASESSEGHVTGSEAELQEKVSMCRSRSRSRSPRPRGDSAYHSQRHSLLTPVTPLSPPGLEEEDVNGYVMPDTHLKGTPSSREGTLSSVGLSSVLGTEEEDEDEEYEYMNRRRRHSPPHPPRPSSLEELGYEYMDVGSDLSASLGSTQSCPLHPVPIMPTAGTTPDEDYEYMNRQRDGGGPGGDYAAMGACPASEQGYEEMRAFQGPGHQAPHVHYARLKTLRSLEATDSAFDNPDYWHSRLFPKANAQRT
468 kinases including some pathogenic mutants (Homo sapiens, UniProt P42336, H1047Y), sequence (P42336 whole entry H1047Y): as the sequence (P42336 whole entry E542K) above, with K542E, H1047Y counted along it

`CN1C(=O)[C@@H](N2CCc3c(nn(Cc4ccccc4)c3C(N)=O)C2=O)COc2cc(Cl)ccc21` [Compound 10, (S)-2-benzyl-6-(8-chloro-5-methyl-4-oxo-2,3,4,5-tetrahydrobenzo[b][1,4]oxazepin-3-yl)-7-oxo-4,5,6,7-tetrahydro-2H-pyrazolo[3,4-c]pyridine-3-carboxamide] was tested, and the remaining activity at 1 µM [1] was 100%, the remaining activity at 1 µM [2] was 100% and the remaining activity at 1 µM [3] was 100%. It also gave a remaining activity at 0.1 µM [4] of 62%, a remaining activity at 0.1 µM [5] of 89% and a remaining activity at 0.1 µM [6] of 84%. It also gave a remaining activity at 0.1 µM ([7]; TYK2(JH1domain-catalytic) (Entrez TYK2), 100 nM) of 72%, a remaining activity at 1 µM [7] of 100% and a remaining activity at 0.1 µM [8] of 92%. It also gave a remaining activity at 0.1 µM [9] of 86%, a remaining activity at 0.1 µM [10] of 88% and a remaining activity at 0.1 µM [11] of 62%. For the same molecule, the remaining activity at 1 µM [12] was 100%, the remaining activity at 0.1 µM [13] was 100% and the remaining activity at 1 µM [14] was 100%. It also gave a remaining activity at 0.1 µM [15] of 88%, a remaining activity at 0.1 µM [16] of 65% and a remaining activity at 0.1 µM [17] of 77%. The remaining activity at 1 µM [18] was 100%, the remaining activity at 1 µM [19] was 100% and the remaining activity at 0.1 µM [20] was 80%. It also gave a remaining activity at 0.1 µM [21] of 100%, a remaining activity at 0.1 µM [22] of 61% and a remaining activity at 0.1 µM [23] of 72%. The remaining activity at 1 µM [24] was 100%, the remaining activity at 0.1 µM [25] was 84% and the remaining activity at 0.1 µM [26] was 67%. It also gave a remaining activity at 1 µM [27] of 100%, a remaining activity at 0.1 µM [28] of 100% and a remaining activity at 0.1 µM [29] of 100%.
